Data on 29 compounds can be found in US7491819B1 (priority 2004, dated 2009).

This experiment has as its target T1, HIV-integrase (Human immunodeficiency virus type 1 group M subtype B, UniProt P12497).
T1 construct: Recombinant integrase (0.26 ng) was incubated with the beads
Description: HIV-Integrase Inhibition Activity (SPA bead strand-transfer assay). In kind it is biochemical. The following applies: Table 1; read-out: Activity (HIV-integrase inhibition, IC50 class). Here is the method: HIV-Integrase Inhibition Activity. To evaluate in-vitro activity against HIV-integrase, 5 pmole of biotin labeled substrate DNA was bound to 100 μg of Streptavidin coated PVT SPA beads (Amersham Pharmacia Biotech). Recombinant integrase (0.26 ng) was incubated with the beads for 90 min at 37° C. Unbound enzyme was removed by washing the complex followed by addition of inhibitors and 0.1 fmol of P33 labeled target DNA. The reaction was stopped by adding EDTA to a final concentration of 10 mM. Samples were counted in TopCountNXT (Packard) and the CPM was used as a measure of integration. The reaction condition was as described in A. Engelman and R. Craigie, J. Virol 69, 5908-5911 (1995). The sequences of substrate and target DNA were described in Nucleic Acid Research 22, 1121-1122 (1994).

For the compound `CNC(=O)c1cc(F)ccc1CNC(=O)c1nc2n(c(=O)c1O)CCOC2` [Example 3, Pyrimido[2,1-c][1,4]oxazine-2-carboxamide, N-[[4-fluoro-2-[(methylamino)carbonyl]phenyl]methyl]-4,6,7,9-tetrahydro-3-hydroxy-4-oxo-], the IC50 lay within 2 to 100 nM.
Next, `Cc1ccc(CNC(=O)c2nc3n(c(=O)c2O)CCOC3C)cc1C` (centres unmarked) [Example 8, Pyrimido[2,1-c][1,4]oxazine-2-carboxamide, N-[(3,4-dimethylphenyl)methyl]-4,6,7,9-tetrahydro-3-hydroxy-9-methyl-4-oxo-]: 2 to 100 nM; `CNC(=O)c1cc(F)ccc1CNC(=O)c1nc2n(c(=O)c1O)CCOC2C` (centres unmarked) [Example 9, Pyrimido[2,1-c][1,4]oxazine-2-carboxamide, N-[[4-fluoro-2-[(methylamino)carbonyl]phenyl]methyl]-4,6,7,9-tetrahydro-3-hydroxy-9-methyl-4-oxo-]: 2 to 100 nM; `CCC1OCCn2c1nc(C(=O)NCc1ccc(F)cc1)c(O)c2=O` (centres unmarked) [Example 10, Pyrimido[2,1-c][1,4]oxazine-2-carboxamide, 9-ethyl-N-[(4-fluorophenyl)methyl]-4,6,7,9-tetrahydro-3-hydroxy-4-oxo-]: 2 to 100 nM.
Turning to `CCC1OCCn2c1nc(C(=O)NCc1ccc(F)c(C)c1)c(O)c2=O` (centres unmarked) [Example 11, Pyrimido[2,1-c][1,4]oxazine-2-carboxamide, 9-ethyl-N-[(4-fluoro-3-methylphenyl)methyl]-4,6,7,9-tetrahydro-3-hydroxy-4-oxo-], the IC50 fell in the range of 2 to 100 nM.
As to `CCC1OCCn2c1nc(C(=O)NCc1ccc(Cl)c(Cl)c1)c(O)c2=O` (centres unmarked) [Example 12, Pyrimido[2,1-c][1,4]oxazine-2-carboxamide, N-[(3,4-dichlorophenyl)methyl]-9-ethyl-4,6,7,9-tetrahydro-3-hydroxy-4-oxo-], the IC50 is 2 to 100 nM.
As to `CCC1OCCn2c1nc(C(=O)NCc1ccc(C)c(C)c1)c(O)c2=O` (centres unmarked) [Example 13, Pyrimido[2,1-c][1,4]oxazine-2-carboxamide, N-[(3,4-dimethylphenyl)methyl]-9-ethyl-4,6,7,9-tetrahydro-3-hydroxy-4-oxo-], the IC50 was in the range of 2 to 100 nM.
To `CCC1OCCn2c1nc(C(=O)NCc1ccc(F)c(Cl)c1)c(O)c2=O` (centres unmarked) [Example 14, Pyrimido[2,1-c][1,4]oxazine-2-carboxamide, N-[(3-chloro-4-fluorophenyl)methyl]-9-ethyl-4,6,7,9-tetrahydro-3-hydroxy-4-oxo-] belongs 2 to 100 nM; to `CCC1OCCn2c1nc(C(=O)NCc1ccc(F)cc1C(=O)NC)c(O)c2=O` (centres unmarked) [Example 15, Pyrimido[2,1-c][1,4]oxazine-2-carboxamide, 9-ethyl-N-[[4-fluoro-2-[(methylamino)carbonyl]phenyl]methyl]-4,6,7,9-tetrahydro-3-hydroxy-4-oxo-], 2 to 100 nM.
To `CCC1OCCn2c1nc(C(=O)NCc1ccc(F)cc1-n1cncn1)c(O)c2=O` (centres unmarked) [Example 16, Pyrimido[2,1-c][1,4]oxazine-2-carboxamide, 9-ethyl-N-[[4-fluoro-2-(1H-1,2,4-triazol-1-yl)phenyl]methyl]-4,6,7,9-tetrahydro-3-hydroxy-4-oxo-] belongs 2 to 100 nM; to `CC(C)C1OCCn2c1nc(C(=O)NCc1ccc(F)cc1)c(O)c2=O` (centres unmarked) [Example 17, Pyrimido[2,1-c][1,4]oxazine-2-carboxamide, N-[(4-fluorophenyl)methyl]-4,6,7,9-tetrahydro-3-hydroxy-9-(1-methylethyl)-4-oxo-], 2 to 100 nM.
Next, `Cc1cc(CNC(=O)c2nc3n(c(=O)c2O)CCOC3C(C)C)ccc1F` (centres unmarked) [Example 18, Pyrimido[2,1-c][1,4]oxazine-2-carboxamide, N-[(4-fluoro-3-methylphenyl)methyl]-4,6,7,9-tetrahydro-3-hydroxy-9-(1-methylethyl)-4-oxo-]: 2 to 100 nM; `Cc1cc(CNC(=O)c2nc3n(c(=O)c2O)CCOC3(C)C)ccc1F` [Example 20, Pyrimido[2,1-c][1,4]oxazine-2-carboxamide, N-[(4-fluoro-3-methylphenyl)methyl]-4,6,7,9-tetrahydro-3-hydroxy-9,9-dimethyl-4-oxo-]: 2 to 100 nM.
As to `CC1(C)OCCn2c1nc(C(=O)NCc1ccc(F)cc1-n1cncn1)c(O)c2=O` [Example 21, Pyrimido[2,1-c][1,4]oxazine-2-carboxamide, N-[[4-fluoro-2-(1H-1,2,4-triazol-1-yl)phenyl]methyl]-4,6,7,9-tetrahydro-3-hydroxy-9,9-dimethyl-4-oxo-], the IC50 is 2 to 100 nM.
Next, `CC1(C)OCCn2c1nc(C(=O)NCc1ccc(-n3cncn3)cc1F)c(O)c2=O` [Example 22, Pyrimido[2,1-c][1,4]oxazine-2-carboxamide, N-[[2-fluoro-4-(1H-1,2,4-triazol-1-yl)phenyl]methyl]-4,6,7,9-tetrahydro-3-hydroxy-9,9-dimethyl-4-oxo-]: 100 to 1000 nM; `CC1(C)OCCn2c1nc(C(=O)NCc1ccc(F)cc1N1CCOCC1)c(O)c2=O` [Example 23, Pyrimido[2,1-c][1,4]oxazine-2-carboxamide, N-[[4-fluoro-2-(4-morpholinyl)phenyl]methyl]-4,6,7,9-tetrahydro-3-hydroxy-9,9-dimethyl-4-oxo-]: 2 to 100 nM.
To `CC1(C)OCCn2c1nc(C(=O)NCc1ccc(N3CCOCC3)cc1F)c(O)c2=O` [Example 24, Pyrimido[2,1-c][1,4]oxazine-2-carboxamide, N-[[2-fluoro-4-(4-morpholinyl)phenyl]methyl]-4,6,7,9-tetrahydro-3-hydroxy-9,9-dimethyl-4-oxo-] belongs 100 to 1000 nM.
Next, `CC1(C)OCCn2c1nc(C(=O)NCCCc1ccc(Cl)c(Cl)c1)c(O)c2=O` [Example 25, Pyrimido[2,1-c][1,4]oxazine-2-carboxamide, N-[3-(3,4-dichlorophenyl)propyl]-4,6,7,9-tetrahydro-3-hydroxy-9,9-dimethyl-4-oxo-]: 100 to 1000 nM; `CC1(C)OCCn2c1nc(C(=O)NCCCc1ccc(F)cc1)c(O)c2=O` [Example 26, Pyrimido[2,1-c][1,4]oxazine-2-carboxamide, N-[3-(4-fluorophenyl)propyl]-4,6,7,9-tetrahydro-3-hydroxy-9,9-dimethyl-4-oxo-]: 2 to 100 nM.
Take `CC1(C)OCCn2c1nc(C(=O)NCc1ccc(F)cc1N1CCCCS1(=O)=O)c(O)c2=O` [Example 27, Pyrimido[2,1-c][1,4]oxazine-2-carboxamide, N-[[4-fluoro-2-(tetrahydro-1,1-dioxido-2H-1,2-thiazin-2-yl)phenyl]methyl]-4,6,7,9-tetrahydro-3-hydroxy-9,9-dimethyl-4-oxo-]: the 50% inhibitory concentration (IC50) lay within 2 to 100 nM.
`CC1(C)OCCn2c1nc(C(=O)NCc1ncc(F)cc1F)c(O)c2=O` [Example 28, Pyrimido[2,1-c][1,4]oxazine-2-carboxamide, N-[(3,5-difluoro-2-pyridinyl)methyl]-4,6,7,9-tetrahydro-3-hydroxy-9,9-dimethyl-4-oxo-]: the IC50 was in the range of 2 to 100 nM.
`CC1(C)OCCn2c1nc(C(=O)NCc1ccc(Cl)cn1)c(O)c2=O` [Example 29, N-((5-Chloropyridin-2-yl)methyl)-3-hydroxy-9,9-dimethyl-4-oxo-4,6,7,9-tetrahydropyrimido[2,1-c][1,4]oxazine-2-carboxamide]: the half-inhibitory concentration (IC50) lay in the range of 2 to 100 nM.
With `CC1(C)OCCn2c1nc(C(=O)NCc1ccc(F)c(Br)c1)c(O)c2=O` [Example 30, Pyrimido[2,1-c][1,4]oxazine-2-carboxamide, N-[(3-bromo-4-fluorophenyl)methyl]-4,6,7,9-tetrahydro-3-hydroxy-9,9-dimethyl-4-oxo-], the IC50 lay in the range of 2 to 100 nM.
On to `Cc1ccc(CNC(=O)c2nc3n(c(=O)c2O)CCOC3(C)C)cc1C` [Example 31, Pyrimido[2,1-c][1,4]oxazine-2-carboxamide, N-[(3,4-dimethylphenyl)methyl]-4,6,7,9-tetrahydro-3-hydroxy-9,9-dimethyl-4-oxo-], for which the IC50 was in the range of 2 to 100 nM.
`CC1(C)OCCn2c1nc(C(=O)NCc1ccc(F)c(Cl)c1)c(O)c2=O` [Example 32, Pyrimido[2,1-c][1,4]oxazine-2-carboxamide, N-[(3-chloro-4-fluorophenyl)methyl]-4,6,7,9-tetrahydro-3-hydroxy-9,9-dimethyl-4-oxo-]: the 50% inhibitory concentration (IC50) is 2 to 100 nM.
Turning to `CC1(C)OCCn2c1nc(C(=O)NCc1ccc(F)c(F)c1)c(O)c2=O` [Example 33, Pyrimido[2,1-c][1,4]oxazine-2-carboxamide, N-[(3,4-difluorophenyl)methyl]-4,6,7,9-tetrahydro-3-hydroxy-9,9-dimethyl-4-oxo-], the IC50 lay in the range of 2 to 100 nM.
Next, `CC1(C)OCCn2c1nc(C(=O)NCc1ccc(Cl)cc1)c(O)c2=O` [Example 34, Pyrimido[2,1-c][1,4]oxazine-2-carboxamide, N-[(4-chlorophenyl)methyl]-4,6,7,9-tetrahydro-3-hydroxy-9,9-dimethyl-4-oxo-]: 2 to 100 nM; `CC1(C)OCCn2c1nc(C(=O)NCc1ccc(F)cc1F)c(O)c2=O` [Example 35, Pyrimido[2,1-c][1,4]oxazine-2-carboxamide, N-[(2,4-difluorophenyl)methyl]-4,6,7,9-tetrahydro-3-hydroxy-9,9-dimethyl-4-oxo-]: 2 to 100 nM; `CC1(C)OCCn2c1nc(C(=O)NCc1ccc(F)cc1Cl)c(O)c2=O` [Example 36, Pyrimido[2,1-c][1,4]oxazine-2-carboxamide, N-[(2-chloro-4-fluorophenyl)methyl]-4,6,7,9-tetrahydro-3-hydroxy-9,9-dimethyl-4-oxo-]: 2 to 100 nM.

For orientation: IC50 means the midpoint of a concentration-inhibition curve.
